Assays:
corn = experiment: Test B pre/postemergence corn; format: in vivo, Zea mays
In short: (§1)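 Herbicidal effect was estimated by eye on a ten-point control scale after plants spent twelve to sixteen days in a greenhouse following soil or foliar treatment. Foliar sprays targeted plants at one to four leaves; all doses were formulated in a non-phytotoxic solvent with surfactant.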

duck salad = experiment: Test B flood test duck salad; format: in vivo, Heteranthera limosa
In short: (§2)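 Plants were grown to the 2-leaf stage before treatment with test chemical, then held in a greenhouse for twelve to sixteen days. Injury was visually rated against untreated controls on a 0–10 scale, where 0 is no effect and 10 is complete control.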

bamyardgrass = experiment: Test B flood test barnyardgrass; format: in vivo, Echinochloa crus-galli
In short: as §2

wheat = experiment: Test B pre/postemergence wheat; format: in vivo, Triticum aestivum; settings: for Plant response rating, Wheat: Rate 250 g/ha
In short: as §1

rice = experiment: Test B flood test rice; format: in vivo, Oryza sativa
In short: as §2

purple nutsedge = experiment: Test B pre/postemergence purple nutsedge; format: in vivo, Cyperus rotundus
In short: as §1

cocklebur = experiment: Test B pre/postemergence cocklebur; format: in vivo, Xanthium strumarium
In short: as §1

velvetleaf = experiment: Test B pre/postemergence velvetleaf; format: in vivo, Abutilon theophrasti; settings: for Plant response rating, Velvetleaf: Rate 250 g/ha
In short: as §1

sugar beet = experiment: Test B pre/postemergence sugar beet; format: in vivo, Beta vulgaris; settings: for Plant response rating, Sugarbeets: Rate 250 g/ha
In short: as §1

crabgrass = experiment: Test B pre/postemergence crabgrass; format: in vivo, Digitaria sanguinalis
In short: as §1

soybean = experiment: Test B pre/postemergence soybean; format: in vivo, Glycine max
In short: as §1

giant foxtail = experiment: Test B pre/postemergence giant foxtail; format: in vivo, Setaria faberii
In short: as §1

morningglory = experiment: Test B pre/postemergence morningglory; format: in vivo, Ipomoea hederacea
In short: as §1

pigweed = experiment: Test B pre/postemergence pigweed; format: in vivo, Amaranthus retroflexus
In short: as §1

wild oat = experiment: Test B pre/postemergence wild oat; format: in vivo, Avena fatua; settings: for Plant response rating, Wild oats: Rate 250 g/ha
In short: as §1

rape = experiment: Test B pre/postemergence rape; format: in vivo, Brassica napus
In short: as §1

[1] = Postemergence, Rate 125 g/ha, scale of 0 to 10 where 0 is no effect and 10 is complete control
[2] = Postemergence, Rate 250 g/ha, scale 0 to 10, 0 no effect, 10 complete control
[3] = Preemergence, Rate 62 g/ha, scale 0 to 10 (0 no effect, 10 complete control)
[4] = Preemergence, Rate 125 g/ha, scale 0 to 10 (0 no effect, 10 complete control)
[5] = Preemergence, Rate 250 g/ha, scale of 0 to 10 where 0 is no effect and 10 is complete control
[6] = Preemergence, Rate 500 g/ha, scale 0 (no effect) to 10 (complete control)
[7] = Rate 62 g/ha, Postemergence, scale of 0 to 10 where 0 is no effect and 10 is complete control
[8] = Rate 500 g/ha, Postemergence, scale 0 to 10, 0 no effect, 10 complete control
[9] = Postemergence (flood test species), Rate 125 g/ha, scale of 0 to 10 where 0 is no effect and 10 is complete control
[10] = Rate 62 g/ha, Postemergence section, flood test species, scale of 0 to 10 where 0 is no effect and 10 is complete control
[11] = Rate 500 g/ha, listed under Postemergence (flood test species), scale 0 to 10, 0 no effect, 10 complete control
[12] = flood test, listed under Postemergence, Rate 250 g/ha, scale 0 to 10, 0 no effect, 10 complete control
[13] = Preemergence, Rate 125 g/ha, 0 is no effect, 10 is complete control
[14] = Preemergence, scale of 0 to 10 where 0 is no effect and 10 is complete control
[15] = Postemergence, scale 0 to 10, 0 is no effect, 10 is complete control
[16] = Rate 250 g/ha, Postemergence, scale 0 to 10, 0 is no effect, 10 is complete control

CCc1noc(C)c1-n1c(=O)on(C(=O)N(c2ccc(F)cc2)C(C)C)c1=O [Compound 101]
Corn plant response rating (corn; [1]): 0
Corn plant response rating (corn; [2]): 0
Corn plant response rating (corn; [3]): 0
Plant response rating, Corn (corn; [4]): 0
Plant response rating, Corn (corn; [5]): 0
Corn plant response rating (corn; [6]): 0
Corn plant response rating (corn; [7]): 0
Corn plant response rating (corn; [8]): 0
Ducksalad plant response rating (duck salad; [9]): 0
Ducksalad plant response rating (duck salad; [10]): 0
Ducksalad plant response rating (duck salad; [11]): 0
Ducksalad plant response rating (duck salad; [12]): 0
Barnyardgrass plant response rating (bamyardgrass; Postemergence, Rate 62 g/ha, scale 0 to 10, 0 is no effect, 10 is complete control): 0
Barnyardgrass plant response rating (bamyardgrass; Rate 125 g/ha, Postemergence section (flood test species), scale 0 to 10, 0 no effect, 10 complete control): 0
Barnyardgrass plant response rating (bamyardgrass; [11]): 0
Barnyardgrass plant response rating (bamyardgrass; [12]): 0
Wheat plant response rating (wheat; [1]): 0
Wheat plant response rating (wheat; [3]): 0
Wheat plant response rating (0 to 10 scale) (wheat; [13]): 0
Plant response rating, Wheat (wheat; [14]): 0
Wheat plant response rating (wheat; [6]): 0
Wheat plant response rating (wheat; [7]): 0
Plant response rating, Wheat (wheat; [15]): 0
Wheat plant response rating (wheat; [8]): 0
Rice plant response rating (rice; [9]): 0
Rice plant response rating (rice; [10]): 0
Plant response rating, Rice (rice; Rate 250 g/ha, Postemergence (flood test), scale 0 to 10, 0 is no effect, 10 is complete control): 0
Rice plant response rating (rice; [11]): 0
Nutsedge plant response rating (purple nutsedge; [1]): 0
Nutsedge plant response rating (purple nutsedge; [2]): 0
Nutsedge plant response rating (purple nutsedge; [3]): 0
Plant response rating, Nutsedge (purple nutsedge; [4]): 0
Plant response rating, Nutsedge (purple nutsedge; [5]): 0
Nutsedge plant response rating (purple nutsedge; [6]): 0
Nutsedge plant response rating (purple nutsedge; [7]): 0
Nutsedge plant response rating (purple nutsedge; [8]): 0
Cocklebur plant response rating (cocklebur; [1]): 0
Cocklebur plant response rating (cocklebur; [2]): 0
Cocklebur plant response rating (cocklebur; [3]): 0
Plant response rating, Cocklebur (cocklebur; [4]): 0
Plant response rating, Cocklebur (cocklebur; [5]): 0
Cocklebur plant response rating (cocklebur; [7]): 0
Cocklebur plant response rating (cocklebur; [8]): 0
Velvetleaf plant response rating (velvetleaf; [1]): 0
Velvetleaf plant response rating (velvetleaf; [3]): 0
Velvetleaf plant response rating (0 to 10 scale) (velvetleaf; [13]): 0
Plant response rating, Velvetleaf (velvetleaf; [14]): 0
Velvetleaf plant response rating (velvetleaf; [6]): 0
Velvetleaf plant response rating (velvetleaf; [7]): 0
Plant response rating, Velvetleaf (velvetleaf; [15]): 0
Velvetleaf plant response rating (velvetleaf; [8]): 0
Sugarbeets plant response rating (sugar beet; [1]): 0
Sugarbeets plant response rating (sugar beet; [3]): 0
Sugarbeets plant response rating (0 to 10 scale) (sugar beet; [13]): 0
Plant response rating, Sugarbeets (sugar beet; [14]): 0
Sugarbeets plant response rating (sugar beet; [6]): 0
Sugarbeets plant response rating (sugar beet; [7]): 0
Plant response rating, Sugarbeets (sugar beet; [15]): 0
Sugarbeets plant response rating (sugar beet; [8]): 0
Crabgrass plant response rating (crabgrass; [1]): 0
Crabgrass plant response rating (crabgrass; [2]): 0
Crabgrass plant response rating (crabgrass; [3]): 0
Plant response rating, Crabgrass (crabgrass; [4]): 0
Plant response rating, Crabgrass (crabgrass; [5]): 0
Crabgrass plant response rating (crabgrass; [6]): 0
Crabgrass plant response rating (crabgrass; [7]): 0
Crabgrass plant response rating (crabgrass; [8]): 0
Soybean plant response rating (soybean; [1]): 2
Soybean plant response rating (soybean; [3]): 0
Plant response rating, Soybean (soybean; [4]): 0
Plant response rating, Soybean (soybean; [5]): 0
Soybean plant response rating (soybean; [6]): 0
Soybean plant response rating (soybean; [7]): 2
Plant response rating, Soybean (soybean; [16]): 3
Soybean plant response rating (soybean; [8]): 3
Giant foxtail plant response rating (giant foxtail; [1]): 0
Giant foxtail plant response rating (giant foxtail; [2]): 0
Giant foxtail plant response rating (giant foxtail; [3]): 0
Plant response rating, Giant foxtail (giant foxtail; [4]): 0
Plant response rating, Giant foxtail (giant foxtail; [5]): 0
Giant foxtail plant response rating (giant foxtail; [6]): 0
Giant foxtail plant response rating (giant foxtail; [7]): 0
Giant foxtail plant response rating (giant foxtail; [8]): 0
Morningglory plant response rating (morningglory; [1]): 0
Morningglory plant response rating (morningglory; [2]): 1
Morningglory plant response rating (morningglory; [3]): 0
Plant response rating, Morningglory (morningglory; [4]): 0
Plant response rating, Morningglory (morningglory; [5]): 0
Morningglory plant response rating (morningglory; [6]): 0
Morningglory plant response rating (morningglory; [7]): 0
Morningglory plant response rating (morningglory; [8]): 1
Redroot pigweed plant response rating (pigweed; [1]): 0
Redroot pigweed plant response rating (pigweed; [3]): 0
Plant response rating, Redroot pigweed (pigweed; [4]): 0
Plant response rating, Redroot pigweed (pigweed; [5]): 0
Redroot pigweed plant response rating (pigweed; [6]): 0
Redroot pigweed plant response rating (pigweed; [7]): 0
Plant response rating, Redroot pigweed (pigweed; [16]): 0
Redroot pigweed plant response rating (pigweed; [8]): 0
Wild oats plant response rating (wild oat; [1]): 0
Wild oats plant response rating (wild oat; [3]): 0
Wild oats plant response rating (0 to 10 scale) (wild oat; [13]): 0
Plant response rating, Wild oats (wild oat; [14]): 0
Wild oats plant response rating (wild oat; [6]): 0
Wild oats plant response rating (wild oat; [7]): 0
Plant response rating, Wild oats (wild oat; [15]): 0
Wild oats plant response rating (wild oat; [8]): 0
Rape plant response rating (rape; [1]): 0
Rape plant response rating (rape; [2]): 0
Rape plant response rating (rape; [3]): 0
Plant response rating, Rape (rape; [4]): 0
Plant response rating, Rape (rape; [5]): 0
Rape plant response rating (rape; [6]): 0
Rape plant response rating (rape; [7]): 0
Rape plant response rating (rape; [8]): 0
